Laboratory results as given in patent US20260091086A1, “POLYPEPTIDE COMBINATIONS AND USES THEREOF” (MEDIMMUNE LIMITED, priority 2024, published 2026).
Numbered stars: 1 amine (or outer) side, 2 acyl side, 3 side chain; on linkers, the order of the positions; unused ones are H or OH. Bridge positions count the residues as written; N and C are the ends. Square brackets hold non-standard residues; d marks the D form. Side chains are listed from the residue outwards. Ends that are not written are not given here. * marks the point of attachment. C18 diacid = O=C(O)CCCCCCCCCCCCCCCCC(=O)*; γGlu = O=C(O)[C@H](CCC(=O)[*:2])N[*:1]; αMeF = C[C@](N)(Cc1ccccc1)C(=O)O

Tests used:
Wistar Han rats = assay: Example 4: 3-month subcutaneous study, body weight; format: in vivo, rat; conditions: for Body Weight Comparison, Day 92 vs. Control Group 1 Day 92 / Body Weight Gain (Day 92 vs Day −1) / Mean Body Weight at Day 92: dose levels 2000/0, Group 4
Description: Study Design: Male (9-11 weeks of age) and female (10-11 weeks of age) Wistar Han rats were SC administered with Vehicle/Vehicle (group 1—for LAA of SEQ ID NO: 11 and GLP-1/GCG of SEQ ID NO: 35), LAA of SEQ ID NO: 11 and GLP-1/GCG of SEQ ID NO: 35 (group 2—500 and 5 μg/kg respectively), LAA of SEQ ID NO: 11 and GLP-1/GCG of SEQ ID NO: 35 (group 3—2000 and 5 μg/kg respectively), SEQ ID NO: 11 and Vehicle for SEQ ID NO: 35 (group 4—2000 μg/kg and 0 μg/kg respectively), or Vehicle for SEQ ID NO: 11 and SEQ ID NO: 35 (group 5—0 and 5 μg/kg respectively) daily for 91 days. Dosing for LAA of SEQ ID NO: 11 was dose escalated with group 2 receiving 250 μg/kg from day 1-5 and 500 μg/kg for duration of study, and groups 3 and 4 receiving 250 μg/kg SEQ ID NO: 11 from day 1-5, 500 μg/kg SEQ ID NO: 11 from days 7-13 and 2000 μg/kg for duration of study. There was a n=10/group per gender.

DIO Sprague-Dawley rats = assay: Example 6 Study 3: 28-day treatment and 14-day wash-out; format: in vivo, rat
Description: Study 3 Design: Male DIO Sprague-Dawley rats (Charles River Laboratories) were fed a high-fat diet (32.5% kcal fat, D12266B; […] Rats were dosed SC QD for 28 days with Vehicle (n=16), GLP-1RA at 5 nmol/kg (n=16), LAA (“SARA”) at 7.5 nmol/kg (n=16), or GLP1RA+LAA at 5+7.5 nmol/kg respectively (n=16). Following 28 days of treatment half the animals per group stopped treatment and were allowed to wash-out for 14 days (n=8/group), while the remaining animals per group were euthanized with blood/tissues collected. Body weight and food intake were measured daily, and body composition was measured before study start, on day 27 and then again on day 42. Data reported as mean±standard error of the mean (SEM); data analysis performed using GraphPad Prism. In this experiment, the LAA was that of SEQ ID NO: 11, and the GLP-1RA was semaglutide.

## K(γE-γE-C18diacid)[CNTATC]ATQRLANFLRHSSNN(αMePhe)GPILPPTEVGSNTY-amide (K([γGlu-γGlu-C18 diacid])CNTATCATQRLANFLRHSSNN[αMeF]GPILPPTEVGSNTY-NH2; disulfide 2-7) [LAA]
Wistar Han rats; both male and female, groups 2-5
  Body weight at study day 92 vs Vehicle: significantly lower
Wistar Han rats; female
  Body Weight Comparison, Day 92 vs. Control Group 1 Day 92: 89%
  Body Weight Gain (Day 92 vs Day −1): 110%
  Mean Body Weight at Day 92: 222.1 grams
Wistar Han rats; male
  Body Weight Comparison, Day 92 vs. Control Group 1 Day 92: 79%
  Body Weight Gain (Day 92 vs Day −1): 119%
  Mean Body Weight at Day 92: 319.2 grams
DIO Sprague-Dawley rats; SC QD 28 days, LAA 7.5, GLP-1RA 5, or 5+7.5 nmol/kg
  inhibition of food intake compared to vehicle: ~−20%
DIO Sprague-Dawley rats; SC QD 28 days, LAA 7.5, GLP-1RA 5, or 5+7.5 nmol/kg, FIG. 5I
  BW loss compared to vehicle: −9.3%
DIO Sprague-Dawley rats; baseline to day 27, FIG. 5K
  lean mass change: preservation of lean mass
DIO Sprague-Dawley rats; baseline to day 27, LAA 7.5, GLP-1RA 5, or 5+7.5 nmol/kg, FIG. 5J
  fat mass change from baseline: -17.7 g
